{"source": "paper PMC5404560", "about": "“Towards Selective Mycobacterial ClpP1P2 Inhibitors with Reduced Activity against the Human Proteasome” (Antimicrobial Agents and Chemotherapy, 2017)", "key": {"M. tuberculosis": {"tested_on": "M. tuberculosis", "assay": "Bactericidal activity (MBC99.9)", "format": "cell-based", "settings": "Mycobacterium tuberculosis; concentration required to kill 99.9% of the bacterial population"}, "[1]": {"assay": "MTS cytotoxicity assay, Vero", "format": "cell-based", "settings": "African green monkey; MTS assay; read-out: GI50, Vero cells", "description": "The MTS (Promega) reduction assay was used according to manufacturer's guidelines to assess Vero (ATCC […]) and HepG2 (ATCC HB-8065) cell viability. […] Carbonyl cyanide m-chlorophenylhydrazone (CCCP) was used as a cytotoxic positive control. Cytotoxicity was determined twice in independent experiments."}}}
{"smiles": "O=C(N[C@@H](Cc1ccccn1)C(=O)N[C@@H](CCc1ccccc1)B(O)O)c1cnccn1", "note": "[Compound 58, ((R)-3-phenyl-1-((S)-2-(pyrazine-2-carboxamido)-3-(pyridin-2-yl)propanamido)propyl)boronic acid]", "values": [{"measurement": "MBC", "setting": "M. tuberculosis", "result": 50, "unit": "µM"}, {"measurement": "GI50", "setting": "[1]", "result": 500, "unit": "µM"}]}
